This passage reports IC50 results from paper PMC11207149, “Novel hematopoietic progenitor kinase 1 inhibitor KHK-6 enhances T-cell activation” (PLOS ONE, 2024).

This test concerns the target T1, hematopoietic progenitor kinase 1 (HPK1) (Homo sapiens, UniProt Q92918).
T1 construct: gene MAP4K1
Description: radiometric [γ-33P]-ATP kinase assay (Eurofins KinaseProfiler), recombinant human HPK1, MBP substrate. In kind it is biochemical.

T1 sequence (Q92918 whole entry): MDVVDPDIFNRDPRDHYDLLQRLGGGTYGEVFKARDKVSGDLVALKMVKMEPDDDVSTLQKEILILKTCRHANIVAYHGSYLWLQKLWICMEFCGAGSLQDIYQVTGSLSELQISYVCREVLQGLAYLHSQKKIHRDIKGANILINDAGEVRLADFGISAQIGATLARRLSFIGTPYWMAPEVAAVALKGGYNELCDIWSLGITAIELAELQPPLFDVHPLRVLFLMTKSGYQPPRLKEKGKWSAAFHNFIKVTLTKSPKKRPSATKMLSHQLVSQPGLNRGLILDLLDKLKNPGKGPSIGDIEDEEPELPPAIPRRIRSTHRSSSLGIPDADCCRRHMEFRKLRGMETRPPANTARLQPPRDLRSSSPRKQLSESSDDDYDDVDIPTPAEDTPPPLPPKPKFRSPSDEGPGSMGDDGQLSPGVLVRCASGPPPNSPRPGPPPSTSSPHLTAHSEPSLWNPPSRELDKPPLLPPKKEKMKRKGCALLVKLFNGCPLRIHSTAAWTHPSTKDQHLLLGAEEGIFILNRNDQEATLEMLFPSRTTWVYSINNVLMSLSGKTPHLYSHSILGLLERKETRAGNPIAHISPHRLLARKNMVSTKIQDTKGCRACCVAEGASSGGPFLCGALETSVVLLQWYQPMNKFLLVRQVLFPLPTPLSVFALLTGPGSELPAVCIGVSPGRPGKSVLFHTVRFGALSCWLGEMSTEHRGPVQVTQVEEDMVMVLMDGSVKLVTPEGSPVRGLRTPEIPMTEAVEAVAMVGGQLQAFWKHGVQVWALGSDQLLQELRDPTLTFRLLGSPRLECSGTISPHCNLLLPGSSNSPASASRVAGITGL

Take `CC(C)S(=O)(=O)c1ccccc1Nc1nc(Nc2ccc3c(c2)C(C)(C)OC3=O)ncc1Cl` [KHK-6]: the IC50 amounted to 20 nM.
